Reference: ChEMBL document CHEMBL3872273, “α-Pyrone derivatives, tetra/hexahydroxanthones, and cyclodepsipeptides from two freshwater fungi” (Bioorg Med Chem, 2017)
Values after ≈ are worked out from the molar mass of the structure shown. Active and inactive are the calls of the source. The rule behind the calls is not given here.

Assays:
Staphylococcus aureus = test: Antimicrobial activity against Staphylococcus aureus; assay type: functional
Escherichia coli [1] = test: Antimicrobial activity against Escherichia coli; assay type: functional
[2] = tested on: Mycolicibacterium smegmatis; test: Antimicrobial activity against Mycobacterium smegmatis; assay type: functional
Candida albicans = test: Antimicrobial activity against Candida albicans; assay type: functional
Aspergillus niger = test: Antimicrobial activity against Aspergillus niger; assay type: functional
[3] = tested on: Salmonella enterica subsp. enterica serovar Typhimurium; test: (§1) Inhibition of Salmonella typhimurium Peptidyl-tRNA hydrolase assessed as reduction in peptidyl-tRNA cleavage to free tRNA by gel electrophoresis
Escherichia coli [4] = test: Inhibition of Escherichia coli Peptidyl-tRNA hydrolase assessed as reduction in peptidyl-tRNA cleavage to free tRNA by gel electrophoresis
Pseudomonas aeruginosa = test: Inhibition of Pseudomonas aeruginosa Peptidyl-tRNA hydrolase assessed as reduction in peptidyl-tRNA cleavage to free tRNA by gel electrophoresis
[5] = as §1; parameters: species or system Salmonella enterica subsp. enterica serovar Typhimurium

Structure (SMILES) | MIC (Staphylococcus aureus) [µg/mL] | MIC (Escherichia coli [1]) [µg/mL] | MIC [2] [µg/mL] | MIC (Candida albicans) [µg/mL] | MIC (Aspergillus niger) [µg/mL] | inhibition [3] | inhibition (Escherichia coli [4]) | inhibition (Pseudomonas aeruginosa) | IC50 [5] [µM]
COc1cc(=O)oc(CO)c1C | > 25 | 25 (≈ 147 µM) | 25 (≈ 147 µM) | 25 (≈ 147 µM) | > 25 | – | – | – | –
COC(=O)[C@]12Oc3cccc(O)c3C(=O)C1=C(O)C[C@@H](C)[C@@H]2O | > 65 | > 65 | > 65 | > 65 | > 65 | Active | Active | Active | –
COC(=O)[C@]12Oc3ccc(-c4ccc5c(c4O)C(=O)C4=C(O)C[C@@H](C)[C@H](O)[C@@]4(C(=O)OC)O5)c(O)c3C(=O)C1=C(O)C[C@@H](C)[C@@H]2O [SECALONIC ACID A] | > 75 | > 75 | > 75 | > 75 | > 75 | – | Active | Active | 1400
CCC[C@H]1Cc2oc(=O)cc(OC)c2[C@H](O)O1 | > 75 | 75 (≈ 312 µM) | > 75 | > 75 | > 75 | – | – | – | –
CC[C@H](C)[C@@H]1NC(=O)[C@H](CCC(N)=O)N(C)C(=O)[C@@H](C(C)C)N(C)C(=O)CNC(=O)[C@@H]2CCCN2C(=O)[C@H](Cc2ccccc2)NC(=O)[C@H]([C@@H](C)CC)OC(=O)[C@H](CCC(=O)O)N(C)C(=O)[C@H](C(C)C)NC(=O)[C@@H]2CCCN2C1=O | > 125 | > 125 | > 125 | > 125 | > 125 | – | – | – | –
CCC[C@@H](O)Cc1oc(=O)cc(OC)c1C | > 155 | > 155 | > 155 | > 155 | > 155 | – | – | – | –
COc1cc(=O)oc2c1CO[C@@H](C[C@@H](C)O)C2 | – | – | – | – | – | Active | Active | Active | –
CCCCCc1oc(=O)cc(OC)c1CO [PYRENOCINE M] | > 140 | > 140 | > 140 | > 140 | > 140 | – | – | – | –
COC(=O)[C@]12Oc3cccc(O)c3C(=O)[C@@H]1[C@H](O)C[C@@H](C)[C@@H]2O | > 100 | > 100 | > 100 | 100 (≈ 310 µM) | > 100 | Active | Active | Active | –
CCC[C@H]1OCc2c(OC)cc(=O)oc2[C@H]1O | > 145 | > 145 | 145 (≈ 604 µM) | 145 (≈ 604 µM) | > 145 | Active | Active | Active | –
CC[C@H](C)[C@@H]1NC(=O)[C@H](CCC(N)=O)N(C)C(=O)[C@@H](C(C)C)N(C)C(=O)CNC(=O)[C@@H]2CCCN2C(=O)[C@H](Cc2ccccc2)NC(=O)[C@H]([C@@H](C)CC)OC(=O)[C@H](CCC(=O)O)N(C)C(=O)[C@H](C(C)C)NC(=O)[C@@H]2CCCCN2C1=O | > 98 | > 98 | > 98 | > 98 | > 98 | – | – | – | –
COc1cc(=O)oc2c1CO[C@@H](CO)C2 | > 53 | > 53 | > 53 | > 53 | > 53 | Active | Active | Active | –
CCCC(O)Cc1oc(=O)cc(OC)c1CO (racemic) | > 55 | > 55 | > 55 | > 55 | > 55 | – | – | – | –
CCCCC(O)c1cc(OC)c(C)c(=O)o1 (racemic) | > 35 | > 35 | > 35 | > 35 | > 35 | – | – | – | –
COc1cc(=O)oc2c1CO[C@@H](CC(C)=O)C2 [PYRENOCINE K] | > 25 | > 25 | > 25 | > 25 | > 25 | – | – | – | –
COC(=O)[C@]12Oc3cccc(O)c3C(=O)[C@@H]1[C@@H](O)C[C@@H](C)[C@@H]2O | > 75 | > 75 | > 75 | > 75 | > 75 | – | – | – | –
CCC[C@H]1Cc2oc(=O)cc(OC)c2CO1 | > 203 | > 203 | > 203 | > 203 | 203 (≈ 905 µM) | Active | Active | Active | –
